From patent US20230135317A1, “COSMETIC FORMULATION FOR TOPICAL ADMINISTRATION COMPRISING NOVEL PEPTIDES THAT IMPROVE APPEARANCE AND REGENERATION OF SKIN” (ASC REGENITY LTD., priority 2020, published 2023)
No end group written: not given here.

B1: Juvista: TGF beta 3 drug (protein, UniProt P10600 301-412, looked up)
Transforming growth factor …: ALDTNYCFRNLEENCCVRPLYIDFRQDLGWKWVHEPKGYYANFCSGPCPYLRSADTTHSTVLGLYNTLNPEASASPCCVPQDLEPLTILYYVGRTPKVEQLSNMVVKSCKCS
modifications: Transforming growth factor beta-3
notes: TGF beta 3 drug

How the values were obtained:
facial skin = test: Nine-month long-term study 2 (stem cell homeostasis module peptides); format: in vivo, human; conditions: nine months; peptide tested with the other modules of TFC8-D; carrier in SEQ ID NO: 3 and 4 is PEG 35 kDa; sequence difference p-value <5%
[1] = clinical phase III (Gunter & MacHens, 2012); cited from earlier work

Molecule | frequency of reported product performance decline (comparison) (facial skin) | clinical outcome [1]
LNPSECPKTVLGASTSTLDASYSTAEAENHVRL (peptide that stimulates the Wnt beta-catenin signaling pathway) [SEQ ID NO: 2, peptide that stimulates Wnt/β-catenin signalling] | more strongly associated with a decline in product performance during the study period than the sequence of SEQ ID NO: 1 | 
Z1-LNPSECPKTVLGASTSTLDASYSTAEAENHVRL (not fully specified (N-terminus); printed as Z1-LNPSECPKTVLGASTSTLDASYSTAEAENHVRL) [SEQ ID NO: 4, Z1 carrier at N-terminus; as tested a polyethyleneglycol with a molecular weight of 35 kDa] | lower for SEQ ID NO: 4 than for SEQ ID NO: 2 | 
(Z1)-LNPSECPKTVLGAEYGKTLDASYSTAEAENHVRL (not fully specified (N-terminus); printed as (Z1)-LNPSECPKTVLGAEYGKTLDASYSTAEAENHVRL) [SEQ ID NO: 3, Z1 carrier at N-terminus; as tested a polyethyleneglycol with a molecular weight of 35 kDa] | lower for SEQ ID NO: 3 than for SEQ ID NO: 1 | 
B1 |  | failure of a clinical phase III study
